Assay results published in patent US20250059217A1, “HETEROCYCLIC COMPOUNDS AND METHODS OF PREPARATION THEREOF” (priority 2021, published 2025).
pEC50: −log10 of the molar value. Counter-ions that a name gives are not always drawn. Like-named read-outs stand apart in the source and are kept apart here.

Assays:
5-HT2C receptor = molecular target: T1, 5-HT2C receptor (Homo sapiens, UniProt P28335); experiment: cell-based
T1 construct: expressed in transfected cells; host or cells: HEK293T
T1 sequence (P28335 33-458): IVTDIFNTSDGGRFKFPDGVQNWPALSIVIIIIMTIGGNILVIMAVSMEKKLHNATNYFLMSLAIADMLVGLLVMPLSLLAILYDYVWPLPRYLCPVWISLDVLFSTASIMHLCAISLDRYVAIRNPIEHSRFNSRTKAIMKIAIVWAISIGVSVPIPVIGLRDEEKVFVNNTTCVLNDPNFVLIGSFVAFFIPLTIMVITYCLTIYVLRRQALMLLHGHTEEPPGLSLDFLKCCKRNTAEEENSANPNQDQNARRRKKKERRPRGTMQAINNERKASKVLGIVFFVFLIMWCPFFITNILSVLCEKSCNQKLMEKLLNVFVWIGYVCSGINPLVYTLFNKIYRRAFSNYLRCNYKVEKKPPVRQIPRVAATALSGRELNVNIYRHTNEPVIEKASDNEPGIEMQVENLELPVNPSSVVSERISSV

5-HT2A receptor = molecular target: T2, 5-HT2A receptor (Homo sapiens, UniProt P28223); experiment: Serotonin receptor 5-HT2 functional assay (Gq dissociation BRET or Gq-dependent calcium flux), 5-HT2A; assay type: cell-based; settings: for 5-HT2A BRET Eff %: efficacy relative to 4-hydroxytryptamine
T2 construct: expressed in transfected cells; host or cells: HEK293T

5-HT2B receptor = molecular target: T3, 5-HT2B receptor (Homo sapiens, UniProt P41595); experiment: Serotonin receptor 5-HT2 functional assay (Gq dissociation BRET or Gq-dependent calcium flux), 5-HT2B; assay type: cell-based; settings: for 5-HT2B BRET Eff % / 5-HT2B BRET EC50 (nM) / pEC50: Table 4, at least three replicate trials; for 5-HT2B BRET Eff %: efficacy relative to 4-hydroxytryptamine; for 5-HT2B BRET EC50 (nM) / pEC50: relative to 4-hydroxytryptamine; for pEC50: read-out: 5-HT2B BRET EC50
T3 construct: expressed in transfected cells; host or cells: HEK293T

5-HT1F receptor = molecular target: T4, 5-HT1F receptor (Homo sapiens, UniProt P30939); experiment: Functional activity at other receptor sites relative to psilocin (Table 5), 5-HT1F; settings: for 5-HT1F Eff %: Table 5, 5-HT1F receptor, compared with psilocin
T4 sequence (P30939 1-366): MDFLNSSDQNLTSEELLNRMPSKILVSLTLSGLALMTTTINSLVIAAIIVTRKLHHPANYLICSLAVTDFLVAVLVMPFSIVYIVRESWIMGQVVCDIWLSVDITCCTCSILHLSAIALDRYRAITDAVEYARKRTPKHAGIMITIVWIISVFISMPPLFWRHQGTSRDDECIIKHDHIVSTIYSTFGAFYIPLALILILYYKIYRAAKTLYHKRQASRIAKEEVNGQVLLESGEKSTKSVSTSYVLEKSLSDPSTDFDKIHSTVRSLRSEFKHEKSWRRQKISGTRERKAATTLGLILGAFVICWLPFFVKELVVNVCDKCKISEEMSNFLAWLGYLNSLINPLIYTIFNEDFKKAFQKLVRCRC

other receptor sites [1] = experiment: Functional activity at other receptor sites relative to psilocin (Table 5), further receptors; settings: compared with psilocin; for 5-HT1A Eff %: 5-HT1A receptor; for 5-HT1B Eff %: 5-HT1B receptor; for 5-HT1D Eff %: 5-HT1D receptor; for 5-HT1E Eff %: 5-HT1E receptor; for 5-HT4 Eff %: 5-HT4 receptor; for 5-HT5A Eff %: 5-HT5A receptor; for 5-HT7 Eff %: 5-HT7 receptor
other receptor sites [2] = molecular target: other receptor sites (Homo sapiens, UniProt P28221); experiment: as above; settings: read-out: 5-HT1D EC50, 5-HT1D receptor, compared with psilocin
other receptor sites [3] = molecular target: other receptor sites (Homo sapiens, UniProt P47898); experiment: as above; settings: read-out: 5-HT5A EC50, 5-HT5A receptor, compared with psilocin
other receptor sites [4] = molecular target: T5, other receptor sites (Homo sapiens, UniProt P08908); experiment: as above; settings: read-out: 5-HT1A EC50, 5-HT1A receptor, compared with psilocin
T5 sequence (P08908 1-422): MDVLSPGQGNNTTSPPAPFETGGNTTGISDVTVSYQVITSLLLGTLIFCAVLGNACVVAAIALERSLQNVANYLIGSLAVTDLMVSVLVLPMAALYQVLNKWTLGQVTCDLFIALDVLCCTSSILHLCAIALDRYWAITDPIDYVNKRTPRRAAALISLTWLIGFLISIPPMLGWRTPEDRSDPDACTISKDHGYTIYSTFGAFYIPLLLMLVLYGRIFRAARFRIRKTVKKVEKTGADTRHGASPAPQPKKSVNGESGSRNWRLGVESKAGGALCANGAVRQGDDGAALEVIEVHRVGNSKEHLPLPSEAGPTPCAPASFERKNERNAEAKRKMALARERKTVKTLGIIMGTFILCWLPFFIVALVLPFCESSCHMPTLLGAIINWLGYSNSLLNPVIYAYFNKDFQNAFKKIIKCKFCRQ

other receptor sites [5] = molecular target: other receptor sites (Homo sapiens, UniProt Q13639); experiment: as above; settings: read-out: 5-HT4 EC50, 5-HT4 receptor, compared with psilocin
other receptor sites [6] = molecular target: other receptor sites (Homo sapiens, UniProt P34969); experiment: as above; settings: read-out: 5-HT7 EC50, 5-HT7 receptor, compared with psilocin
other receptor sites [7] = molecular target: other receptor sites (Homo sapiens, UniProt P28222); experiment: as above; settings: read-out: 5-HT1B EC50, 5-HT1B receptor, compared with psilocin
other receptor sites [8] = molecular target: other receptor sites (Homo sapiens, UniProt P28566); experiment: as above; settings: read-out: 5-HT1E EC50, 5-HT1E receptor, compared with psilocin
5-HT6 receptor = 5-HT6 receptor (Homo sapiens, UniProt P50406); experiment: Functional activity at other receptor sites relative to psilocin (Table 5), 5-HT6; settings: for 5-HT6 Eff %: Table 5, 5-HT6 receptor, compared with psilocin
[9] = Table 4, at least three replicate trials
[10] = Table 4, efficacy relative to 4-hydroxytryptamine, at least three replicate trials
[11] = Table 4, relative to 4-hydroxytryptamine, at least three replicate trials, read-out: 5-HT2C BRET EC50
[12] = Table 4, relative to 4-hydroxytryptamine, at least three replicate trials, read-out: 5-HT2A BRET EC50
[13] = Table 5, 5-HT2A receptor, compared with psilocin
[14] = Table 5, 5-HT2B receptor, compared with psilocin

T3 sequence (P41595 whole entry): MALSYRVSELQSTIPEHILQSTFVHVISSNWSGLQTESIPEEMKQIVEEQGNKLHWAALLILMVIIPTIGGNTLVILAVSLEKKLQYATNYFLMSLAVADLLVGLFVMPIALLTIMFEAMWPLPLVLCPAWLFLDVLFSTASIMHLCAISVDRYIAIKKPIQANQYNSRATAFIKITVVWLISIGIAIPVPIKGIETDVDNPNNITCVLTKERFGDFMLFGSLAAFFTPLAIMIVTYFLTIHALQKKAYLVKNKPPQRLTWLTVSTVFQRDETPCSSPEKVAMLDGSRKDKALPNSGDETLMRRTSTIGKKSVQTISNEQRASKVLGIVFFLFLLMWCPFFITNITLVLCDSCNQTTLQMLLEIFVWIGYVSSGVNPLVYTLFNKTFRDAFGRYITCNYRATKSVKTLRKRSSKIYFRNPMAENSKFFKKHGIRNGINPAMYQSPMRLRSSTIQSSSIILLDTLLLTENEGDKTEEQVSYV
T2 sequence (P28223 whole entry): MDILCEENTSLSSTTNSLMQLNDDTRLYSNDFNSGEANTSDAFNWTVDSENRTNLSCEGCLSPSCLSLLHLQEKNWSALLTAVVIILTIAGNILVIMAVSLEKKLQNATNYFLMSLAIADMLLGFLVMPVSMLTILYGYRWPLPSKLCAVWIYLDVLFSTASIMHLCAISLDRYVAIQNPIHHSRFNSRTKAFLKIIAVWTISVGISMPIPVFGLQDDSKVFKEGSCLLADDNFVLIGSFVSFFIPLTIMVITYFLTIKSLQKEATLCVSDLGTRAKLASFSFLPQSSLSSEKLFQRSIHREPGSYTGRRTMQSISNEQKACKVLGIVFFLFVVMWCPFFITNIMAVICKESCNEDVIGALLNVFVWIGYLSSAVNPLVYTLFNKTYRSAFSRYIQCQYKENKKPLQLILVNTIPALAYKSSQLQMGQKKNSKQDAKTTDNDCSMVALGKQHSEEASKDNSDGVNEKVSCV
Chain of 5-HT6 receptor (P50406 whole entry): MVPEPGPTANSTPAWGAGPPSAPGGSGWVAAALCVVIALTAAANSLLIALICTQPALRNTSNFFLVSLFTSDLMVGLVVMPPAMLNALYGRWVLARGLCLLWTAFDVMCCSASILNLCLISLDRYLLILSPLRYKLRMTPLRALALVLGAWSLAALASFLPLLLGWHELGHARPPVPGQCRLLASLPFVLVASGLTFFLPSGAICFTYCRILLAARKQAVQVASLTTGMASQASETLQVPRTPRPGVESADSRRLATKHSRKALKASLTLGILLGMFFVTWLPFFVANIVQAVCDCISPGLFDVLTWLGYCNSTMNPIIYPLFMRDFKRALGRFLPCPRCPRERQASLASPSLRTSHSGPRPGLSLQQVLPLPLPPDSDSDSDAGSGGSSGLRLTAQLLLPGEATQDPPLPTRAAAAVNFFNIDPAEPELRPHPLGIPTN
Chain of other receptor sites (Homo sapiens, UniProt Q13639) (Q13639 whole entry): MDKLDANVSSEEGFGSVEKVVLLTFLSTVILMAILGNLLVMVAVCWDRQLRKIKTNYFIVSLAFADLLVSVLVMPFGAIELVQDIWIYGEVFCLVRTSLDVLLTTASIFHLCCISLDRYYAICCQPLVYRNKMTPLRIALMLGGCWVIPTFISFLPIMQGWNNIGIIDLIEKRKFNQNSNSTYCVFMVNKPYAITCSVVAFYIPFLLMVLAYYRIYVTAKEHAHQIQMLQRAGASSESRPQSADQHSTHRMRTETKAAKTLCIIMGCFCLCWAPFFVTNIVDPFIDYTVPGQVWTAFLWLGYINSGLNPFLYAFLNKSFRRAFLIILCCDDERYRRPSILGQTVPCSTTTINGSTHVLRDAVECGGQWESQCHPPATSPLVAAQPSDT
Chain of other receptor sites (Homo sapiens, UniProt P34969) (P34969 whole entry): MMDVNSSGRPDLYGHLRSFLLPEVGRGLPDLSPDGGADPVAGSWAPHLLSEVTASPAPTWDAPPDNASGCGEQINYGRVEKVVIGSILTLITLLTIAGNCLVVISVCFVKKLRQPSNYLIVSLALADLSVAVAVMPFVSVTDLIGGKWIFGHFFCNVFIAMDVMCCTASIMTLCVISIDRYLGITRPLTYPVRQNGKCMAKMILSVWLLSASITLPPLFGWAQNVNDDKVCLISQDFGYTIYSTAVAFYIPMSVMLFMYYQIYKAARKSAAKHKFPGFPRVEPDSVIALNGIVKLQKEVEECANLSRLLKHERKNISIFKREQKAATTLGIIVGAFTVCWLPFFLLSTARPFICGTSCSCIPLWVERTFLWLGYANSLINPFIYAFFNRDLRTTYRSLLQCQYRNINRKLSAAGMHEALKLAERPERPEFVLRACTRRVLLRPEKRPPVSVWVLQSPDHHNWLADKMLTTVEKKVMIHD
Chain of other receptor sites (Homo sapiens, UniProt P47898) (P47898 whole entry): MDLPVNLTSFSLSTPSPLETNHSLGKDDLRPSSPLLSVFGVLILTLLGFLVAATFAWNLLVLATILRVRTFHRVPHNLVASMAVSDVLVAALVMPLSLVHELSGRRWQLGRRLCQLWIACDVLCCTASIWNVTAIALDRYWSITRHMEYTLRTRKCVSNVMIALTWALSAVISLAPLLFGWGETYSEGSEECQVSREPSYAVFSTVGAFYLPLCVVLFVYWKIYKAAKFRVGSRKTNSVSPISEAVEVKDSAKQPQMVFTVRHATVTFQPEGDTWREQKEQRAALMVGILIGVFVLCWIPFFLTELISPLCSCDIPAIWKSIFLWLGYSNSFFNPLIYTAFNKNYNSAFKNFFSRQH
Chain of other receptor sites (Homo sapiens, UniProt P28221) (P28221 whole entry): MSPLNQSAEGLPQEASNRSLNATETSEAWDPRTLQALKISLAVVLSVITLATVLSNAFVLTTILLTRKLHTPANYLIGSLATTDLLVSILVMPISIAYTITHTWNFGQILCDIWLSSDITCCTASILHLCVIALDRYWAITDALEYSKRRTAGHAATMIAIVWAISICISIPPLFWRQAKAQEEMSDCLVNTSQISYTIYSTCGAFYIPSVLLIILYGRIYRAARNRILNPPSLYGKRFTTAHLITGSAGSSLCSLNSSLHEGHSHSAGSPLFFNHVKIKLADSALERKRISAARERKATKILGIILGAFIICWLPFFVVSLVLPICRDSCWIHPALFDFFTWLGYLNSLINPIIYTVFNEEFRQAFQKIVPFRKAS
Chain of other receptor sites (Homo sapiens, UniProt P28222) (P28222 whole entry): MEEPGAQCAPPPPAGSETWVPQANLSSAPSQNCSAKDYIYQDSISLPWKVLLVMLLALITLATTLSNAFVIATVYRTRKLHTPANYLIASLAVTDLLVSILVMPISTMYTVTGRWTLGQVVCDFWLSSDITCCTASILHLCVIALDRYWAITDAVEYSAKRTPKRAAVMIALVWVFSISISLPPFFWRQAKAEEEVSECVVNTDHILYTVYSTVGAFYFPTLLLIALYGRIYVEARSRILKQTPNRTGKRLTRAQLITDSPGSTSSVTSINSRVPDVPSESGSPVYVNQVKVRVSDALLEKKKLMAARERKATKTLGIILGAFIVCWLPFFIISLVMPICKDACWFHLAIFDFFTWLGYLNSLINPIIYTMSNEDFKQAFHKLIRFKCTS
Chain of other receptor sites (Homo sapiens, UniProt P28566) (P28566 whole entry): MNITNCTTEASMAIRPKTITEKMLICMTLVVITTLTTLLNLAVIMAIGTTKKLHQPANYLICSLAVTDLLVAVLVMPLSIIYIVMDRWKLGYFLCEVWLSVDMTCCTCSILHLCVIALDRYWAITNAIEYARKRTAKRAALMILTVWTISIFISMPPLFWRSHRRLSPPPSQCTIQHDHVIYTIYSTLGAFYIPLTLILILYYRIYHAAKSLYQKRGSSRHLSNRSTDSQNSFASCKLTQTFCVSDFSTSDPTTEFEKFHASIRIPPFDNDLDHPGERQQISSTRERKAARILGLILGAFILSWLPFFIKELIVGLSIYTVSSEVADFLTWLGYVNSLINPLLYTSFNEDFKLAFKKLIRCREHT

For `CN(C)CCc1c[nH]c2c(C#N)ccc(O)c12` [Compound 64, 3-[2-(Dimethylamino)ethyl]-4-hydroxyindole-7-carbonitrile], the “5-HT2C BRET Eff %” value (5-HT2C receptor) was 79%, the pEC50 (5-HT2C receptor) was 7.06 and the pEC50 (5-HT2A receptor) was 6.57. For the same compound, the “5-HT2A BRET Eff %” value (5-HT2A receptor; [9]) was 49%, the “5-HT2B BRET Eff %” value (5-HT2B receptor) was “inactive” and the “5-HT2B BRET EC50 (nM)” value (5-HT2B receptor) was “inactive”.

For `CN(C)CCc1c[nH]c2c(C(N)=O)ccc(O)c12` [Compound 65, 3-[2-(Dimethylamino)ethyl]-4-hydroxyindole-7-carboxamide], the “5-HT2C BRET Eff %” value (5-HT2C receptor; [10]) was 69%, the pEC50 (5-HT2C receptor; [11]) was 5.00 and the “5-HT2A BRET Eff %” value (5-HT2A receptor; [9]) was “inactive”. The “5-HT2A BRET EC50 (nM)” value (5-HT2A receptor; Table 4, relative to 4-hydroxytryptamine, at least three replicate trials) was “inactive”, the “5-HT2B BRET Eff %” value (5-HT2B receptor) was “inactive” and the “5-HT2B BRET EC50 (nM)” value (5-HT2B receptor) was “inactive”.

In the case of `Cc1ccc(O)c2c(C[C@H]3CCN3C)c[nH]c12` [Compound 77, 7-Methyl-3-[((S)-1-methylazetidin-2-yl)methyl]indol-4-ol], the “5-HT2C BRET Eff %” value (5-HT2C receptor; [10]) was 66%, the pEC50 (5-HT2C receptor; [11]) was 8.14 and the “5-HT2A BRET Eff %” value (5-HT2A receptor; [9]) was 69%. For the same compound, the pEC50 (5-HT2A receptor; [12]) was 7.31, the “5-HT2B BRET Eff %” value (5-HT2B receptor) was 41% and the pEC50 (5-HT2B receptor) was 7.24.

`Cc1cc2c(c3c(CCN)c[nH]c13)CCCO2` [Compound 110] was tested, and the “5-HT2C BRET Eff %” value (5-HT2C receptor; [10]) was 96%, the pEC50 (5-HT2C receptor; [11]) was 7.16 and the “5-HT2A BRET Eff %” value (5-HT2A receptor; [9]) was 91%. The pEC50 (5-HT2A receptor; [12]) was 6.56, the “5-HT2B BRET Eff %” value (5-HT2B receptor) was 63% and the pEC50 (5-HT2B receptor) was 6.86.

In the case of `CN(C)CCc1cn2c3c(cccc13)OCC2` [Compound 135, [2-(2,3-Dihydro-[1,4]oxazino[2,3,4-hi]indol-6-yl)ethyl]dimethylamine Hydrochloride], the “5-HT2C BRET Eff %” value (5-HT2C receptor; [10]) was 96%, the pEC50 (5-HT2C receptor; [11]) was 8.05 and the “5-HT2A BRET Eff %” value (5-HT2A receptor; [9]) was 76%. For the same compound, the pEC50 (5-HT2A receptor; [12]) was 6.12, the “5-HT2B BRET Eff %” value (5-HT2B receptor) was 42% and the pEC50 (5-HT2B receptor) was 7.97.

`Cc1ccc(O)c2c(CCN(C)C)c[nH]c12` [drawing 38] was tested, and the pEC50 (5-HT1F receptor) was 7.64, the “5-HT1F Eff %” value (5-HT1F receptor) was 92% and the “5-HT2C Eff %” value (5-HT2C receptor; Table 5, 5-HT2C receptor, compared with psilocin) was 79%. The pEC50 (5-HT2C receptor; Table 5, 5-HT2C receptor, compared with psilocin, read-out: 5-HT2C EC50) was 8.16, the “5-HT2A Eff %” value (5-HT2A receptor; [13]) was 73% and the pEC50 (5-HT2A receptor; read-out: 5-HT2A EC50, Table 5, 5-HT2A receptor, compared with psilocin) was 7.18. For the same compound, the EC50 (5-HT2B receptor; 5-HT2B EC50 (nM), Table 5, 5-HT2B receptor, compared with psilocin) was 3.6 nM, the “5-HT2B Eff %” value (5-HT2B receptor; [14]) was 16% and the “5-HT1A Eff %” value (other receptor sites [1]) was 76%. For the same compound, the “5-HT1B Eff %” value (other receptor sites [1]) was 105%, the “5-HT1D Eff %” value (other receptor sites [1]) was 112% and the “5-HT1E Eff %” value (other receptor sites [1]) was 102%. For the same compound, the “5-HT4 Eff %” value (other receptor sites [1]) was 13%, the “5-HT5A Eff %” value (other receptor sites [1]) was 20% and the “5-HT7 Eff %” value (other receptor sites [1]) was 3.4%. The pEC50 (other receptor sites [2]) was 6.13, the pEC50 (other receptor sites [3]) was 4.64 and the pEC50 (other receptor sites [4]) was 4.90. The pEC50 (other receptor sites [5]) was 6.59, the pEC50 (other receptor sites [6]) was 8.28 and the pEC50 (other receptor sites [7]) was 6.51. For the same compound, the pEC50 (other receptor sites [8]) was 6.78, the pEC50 (5-HT6 receptor) was 8.05 and the “5-HT6 Eff %” value (5-HT6 receptor) was 48%.

In the case of `CN(C)CCc1c[nH]c2cccc(O)c12` [drawing 39], the pEC50 (5-HT1F receptor) was 8.03, the “5-HT1F Eff %” value (5-HT1F receptor) was 93% and the “5-HT2A Eff %” value (5-HT2A receptor; [13]) was 82%. For the same compound, the “5-HT2B Eff %” value (5-HT2B receptor; [14]) was 63%, the “5-HT1A Eff %” value (other receptor sites [1]) was 93% and the “5-HT1B Eff %” value (other receptor sites [1]) was 94%. The “5-HT1D Eff %” value (other receptor sites [1]) was 102%, the “5-HT1E Eff %” value (other receptor sites [1]) was 90% and the “5-HT4 Eff %” value (other receptor sites [1]) was 81%. The “5-HT5A Eff %” value (other receptor sites [1]) was 48%, the “5-HT7 Eff %” value (other receptor sites [1]) was 86% and the pEC50 (other receptor sites [5]) was 6.25. The pEC50 (other receptor sites [6]) was 6.28, the pEC50 (5-HT6 receptor) was 6.74 and the “5-HT6 Eff %” value (5-HT6 receptor) was 74%.
